According to US9045491B2, “Thienyl [3,2-D] pyrimidin-4-one compounds, preparation method, pharmaceutical compositions and use thereof” (SHANGHAI INSTITUTE OF MATERIA MEDICA, CHINESE ACADEMY OF …, priority 2011, dated 2015):
“And” between values parts separate entries of the source, which are not always exact repeats. Identical values can stand only once. “Also recorded” adds a separate entry of the source.

Columns and labels:
[1] = system: normal ICR mouse; experiment: Oral glucose tolerance test (OGTT), acute hypoglycemic effect of single oral dose; assay type: in vivo
Procedure: Acute hypoglycemic effect of single dose through mouth on the normal ICR mouse
Animal: ICR mouse (8-10 weeks old, sex: male, weight: 25-30 g, purchased from Shanghai SLAC Laboratory Animal Center).
1. Two days before the experiment, the food consumption was recorded and the daily food consumption of each animal was calculated;
2. The animals fasted overnight (⅓ of daily food consumption was provided, about 2 g);
3. The blood glucose was measured on the second day.
4. The medicament was administrated through gavage (1 mouse/min). After 6 hours, the blood glucose was measured. Glucose was administrated through gavage according to the body weight (2.5 g/kg). The blood glucose value was monitored at 30 min, 60 min, 90 min, and 120 min after administration.

[2] = Pharmacokinetics of DC291407 and metabolites in rats (LC-MS/MS); assay type: in vivo, Sprague-Dawley (SD) rats
Procedure: The concentration of metabolite M1 (4071001), metabolite M2 (407002) or metabolite M3 (407003) in plasma was determined by LC-MS/MS method after DC291407 was administrated to the rats through gavage and intravenous injection.
The LC/MS/MS used is triple quadruple LC/MS 6460 from Agilent.
Six healthy male Sprague-Dawley (SD) rats with the weight of 180-220 g were randomly divided into 2 groups. The rats in each group were administrated with the tested compound by gavage or intravenous injection, respectively.
The compound was dissolved in 6.7% DMSO/6.7% Tween/86.6% normal saline.
The rats fasted for 12 h and can drink water ad libitum. 2 h after dosing, the rats were provided with food all together. The time point for collecting blood samples and the sample processing are listed as follows.
Intragastric administration: 0.25, 0.5, 1.0, 2.0, 3.0, 4.0, 6.0, 8.0 and 24 h after administration;
Intravenous administration: 5 min, 0.25, 0.5, 1.0, 2.0, 4.0, 6.0, 8.0 and 24 h after administration. At above time point, 0.3 ml venous blood was taken from retrobulbar venous plexus of the rat and loaded into heparinization tube. After centrifuged at 11000 rpm for 5 min, the plasma was separated and frozen at −20° C. in a refrigerator.

[3] = gavage 20 mg/kg DC291407, average of 3 animals
[4] = gavage 20 mg/kg DC291407, individual animals, 20 mg/kg
[5] = gavage 20 mg/kg DC291407, time 0 h, individual animals, BLQ = below lower quantification
[6] = gavage 20 mg/kg DC291407, time 0.25 h, individual animals, 20 mg/kg
[7] = gavage 20 mg/kg DC291407, time 0.5 h, individual animals, 20 mg/kg
[8] = intravenous injection 10 mg/kg DC291407, average of 3 animals

SMILES: COC(=O)c1cc2nc(N3CCCC(N)C3)n(Cc3ccccc3C#N)c(=O)c2s1 (stereo not drawn) [DC291407]
- hypoglycemic ability in vivo, oral glucose tolerance test after multiple single-dose administration ([1]; single administration at multiple doses, FIGS. 11-12): comparable to that of Alogliptin
- hypoglycemic ability in vivo, oral glucose tolerance test ([1]; single dose 3 mg/kg by gavage, glucose 2.5 g/kg after 6 hours, FIGS. 7-10): comparable to that of Alogliptin
- concentration of M2 in plasma samples collected within one hour after administration ([2]; gavage 20 mg/kg DC291407): below 20 ng/ml
- metabolite M3 in plasma ([2]; gavage 20 mg/kg DC291407): can not be detected
- prototype compound in plasma ([2]; gavage 20 mg/kg DC291407): can not be detected
- main component in plasma ([2]; gavage 20 mg/kg DC291407, 20 mg/kg): mainly contained hydrolysis-metabolite M1; also recorded: mainly contained hydrolysis-metabolite Ml
- AUC0-t of metabolite M1 [2, 3]: 9860 ng·h/mL
- AUC0-∞ of metabolite M1 [2, 3]: 9968 ng·h/mL
- Cmax of metabolite M1 [2, 3]: 6039 ng/mL
- MRT of metabolite M1 [2, 3]: 2.58 h
- Tmax of metabolite M1 [2, 3]: 0.33 h
- t1/2 of metabolite M1 [2, 3]: 5.63 h
- F, absolute bioavailability ([2]; gavage 20 mg/kg DC291407, dose-normalized, based on AUC of metabolite M1): 22.1%
- AUC0-t of metabolite M1 [2, 4]: 8191 ng·h/mL and 5758 ng·h/mL and 15633 ng·h/mL
- AUC0-∞ of metabolite M1 [2, 4]: 8292 ng·h/mL and 5907 ng·h/mL and 15706 ng·h/mL
- Cmax of metabolite M1 [2, 4]: 4435 ng/mL and 3427 ng/mL and 10255 ng/mL
- MRT of metabolite M1 [2, 4]: 2.86 h and 3.15 h and 1.74 h
- Tmax of metabolite M1 [2, 4]: 0.50 h and 0.25 h
- t1/2 of metabolite M1 [2, 4]: 5.37 h and 7.97 h and 3.55 h
- Plasma concentration of metabolite M1 [2, 5]: BLQ
- Plasma concentration of metabolite M2 [2, 5]: BLQ
- Plasma concentration of metabolite M1 ([2]; gavage 20 mg/kg DC291407, time 0.25 h, average of 3 animals): 5712 ng/mL
- Plasma concentration of metabolite M1 [2, 6]: 3454 ng/mL and 3427 ng/mL and 10255 ng/mL
- Plasma concentration of metabolite M2 [2, 6]: 3.87 ng/mL and 3.24 ng/mL and 16.3 ng/mL
- Plasma concentration of metabolite M1 ([2]; gavage 20 mg/kg DC291407, time 0.5 h, average of 3 animals): 5975 ng/mL
- Plasma concentration of metabolite M1 [2, 7]: 4435 ng/mL and 3404 ng/mL and 10087 ng/mL
- Plasma concentration of metabolite M2 [2, 7]: 4.79 ng/mL and 3.94 ng/mL and 16.9 ng/mL
- Plasma concentration of metabolite M1 ([2]; gavage 20 mg/kg DC291407, time 1.0 h, average of 3 animals): 3962 ng/mL
- Plasma concentration of metabolite M1 ([2]; gavage 20 mg/kg DC291407, time 1.0 h, individual animals, 20 mg/kg): 3326 ng/mL and 1771 ng/mL and 6789 ng/mL
- Plasma concentration of metabolite M2 ([2]; gavage 20 mg/kg DC291407, time 1.0 h, individual animals, BLQ = below lower quantification, 20 mg/kg): 3.88 ng/mL and BLQ and 10.7 ng/mL
- Plasma concentration of metabolite M1 ([2]; gavage 20 mg/kg DC291407, time 2.0 h, average of 3 animals): 1117 ng/mL
- Plasma concentration of metabolite M1 ([2]; gavage 20 mg/kg DC291407, time 2.0 h, individual animals, 20 mg/kg): 690 ng/mL and 1091 ng/mL and 1569 ng/mL
- Plasma concentration of metabolite M2 ([2]; gavage 20 mg/kg DC291407, time 2.0 h, individual animals, BLQ = below lower quantification): BLQ
- Plasma concentration of metabolite M1 ([2]; gavage 20 mg/kg DC291407, time 3.0 h, average of 3 animals): 549 ng/mL
- Plasma concentration of metabolite M1 ([2]; gavage 20 mg/kg DC291407, time 3.0 h, individual animals, 20 mg/kg): 476 ng/mL and 299 ng/mL and 872 ng/mL
- Plasma concentration of metabolite M2 ([2]; gavage 20 mg/kg DC291407, time 3.0 h, individual animals, BLQ = below lower quantification): BLQ
- Plasma concentration of metabolite M1 ([2]; gavage 20 mg/kg DC291407, time 4.0 h, average of 3 animals): 390 ng/mL
- Plasma concentration of metabolite M1 ([2]; gavage 20 mg/kg DC291407, time 4.0 h, individual animals, 20 mg/kg): 500 ng/mL and 105 ng/mL and 565 ng/mL
- Plasma concentration of metabolite M2 ([2]; gavage 20 mg/kg DC291407, time 4.0 h, individual animals, BLQ = below lower quantification): BLQ
- Plasma concentration of metabolite M1 ([2]; gavage 20 mg/kg DC291407, time 6.0 h, average of 3 animals): 123 ng/mL
- Plasma concentration of metabolite M1 ([2]; gavage 20 mg/kg DC291407, time 6.0 h, individual animals, 20 mg/kg): 138 ng/mL and 57.3 ng/mL and 173 ng/mL
- Plasma concentration of metabolite M2 ([2]; gavage 20 mg/kg DC291407, time 6.0 h, individual animals, BLQ = below lower quantification): BLQ
- Plasma concentration of metabolite M1 ([2]; gavage 20 mg/kg DC291407, time 8.0 h, average of 3 animals): 68.5 ng/mL
- Plasma concentration of metabolite M1 ([2]; gavage 20 mg/kg DC291407, time 8.0 h, individual animals, 20 mg/kg): 97.1 ng/mL and 58.9 ng/mL and 49.5 ng/mL
- Plasma concentration of metabolite M2 ([2]; gavage 20 mg/kg DC291407, time 8.0 h, individual animals, BLQ = below lower quantification): BLQ
- Plasma concentration of metabolite M1 ([2]; gavage 20 mg/kg DC291407, time 24 h, average of 3 animals): 13.4 ng/mL
- Plasma concentration of metabolite M1 ([2]; gavage 20 mg/kg DC291407, time 24 h, individual animals, 20 mg/kg): 13.0 ng/mL (2×) and 14.3 ng/mL
- Plasma concentration of metabolite M2 ([2]; gavage 20 mg/kg DC291407, time 24 h, individual animals, BLQ = below lower quantification): BLQ
- main component in plasma ([2]; intravenous 10 mg/kg DC291407): mainly contained hydrolysis-metabolite M1
- metabolite M2 in plasma ([2]; intravenous 10 mg/kg DC291407): relatively low concentration
- prototype compound in plasma ([2]; intravenous 10 mg/kg DC291407): relatively low concentration
- metabolite M3 in plasma ([2]; intravenous 10 mg/kg DC291407, 10 mg/kg): can not be detected; also recorded: no metabolite M3 can be detected
- AUC0-t of metabolite M1 [2, 8]: 22274 ng·h/mL
- AUC0-t of prototype drug [2, 8]: 36.0 ng·h/mL
- AUC0-∞ of metabolite M1 [2, 8]: 22517 ng·h/mL
- AUC0-∞ of prototype drug [2, 8]: 39.9 ng·h/mL
- CL of prototype drug [2, 8]: 260 L/h/kg
- Cmax of metabolite M1 [2, 8]: 45028 ng/mL
- MRT of metabolite M1 [2, 8]: 1.13 h
- MRT of prototype drug [2, 8]: 0.78 h
